From publication PMC11459923, “Identification of novel and potent inhibitors of SARS-CoV-2 main protease from DNA-encoded chemical libraries” (Antimicrobial Agents and Chemotherapy, 2024)
Where two headings read alike, the source gives them in different places.

Experiments:
SARS-CoV-2 M^pro [1] = molecular target: T1, SARS-CoV-2 M^pro (Severe acute respiratory syndrome coronavirus 2, UniProt P0DTD1); assay: Mpro protease activity assay (FRET, used for Table 1); format: biochemical
[2] = molecular target: avi-tagged SARS-CoV-2 M^pro (Severe acute respiratory syndrome coronavirus 2, UniProt P0DTD1); format: binding
human cathepsin S = molecular target: T2, human cathepsin S (Homo sapiens, UniProt P25774); assay: Counter assay screening, SensoLyte 440 cathepsin S kit; format: biochemical; details: for Inhibitory activity against human Cathepsin S: concentrations 50 to 0.00085 µM; for IC50: tested up to 50 µM
T2 construct: purchased Anaspec, Inc. SensoLyte 440 cathepsin S Assay Kit (catalogue number not given)
T2 sequence (P25774 115-331): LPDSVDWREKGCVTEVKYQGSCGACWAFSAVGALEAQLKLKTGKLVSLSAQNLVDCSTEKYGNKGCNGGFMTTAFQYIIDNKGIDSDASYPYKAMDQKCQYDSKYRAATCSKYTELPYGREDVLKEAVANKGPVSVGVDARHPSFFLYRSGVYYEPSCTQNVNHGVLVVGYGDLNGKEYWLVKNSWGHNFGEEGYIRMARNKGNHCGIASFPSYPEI

SARS-CoV-2 M^pro [3] = molecular target: T1, SARS-CoV-2 M^pro; assay: In vitro FRET enzymatic assay (screening at 1 µM and SAR IC50); format: biochemical; details: read-out: IC50 ± SEM
[4] = mouse; for Metabolic stability: microsomes
in vitro [5] = details: human, microsomes
in vitro [6] = details: mouse, microsomes
[7] = human; for Metabolic stability: microsomes
SARS-CoV-2 = assay: microbe, parasite or virus in culture; format: cell-based
in vitro [8] = details: human, Caco-2
M^pro = details: read-out: IC50 M^pro; cited from earlier work
[9] = 75 nM M^pro, 10 µM substrate, 11-point series from 50 µM

Row | Structure (SMILES) | IC50 (SARS-CoV-2 M^pro [1]; [9]) [nM] | Enrichment score M^pro [2] | Enrichment score M^pro +GC376 [2] | Inhibitory activity against human Cathepsin S (human cathepsin S) | IC50 (human cathepsin S) [nM] | IC50 M^pro (SARS-CoV-2 M^pro [1]; off-DNA synthesized DECL hits) | further results
1 | CNC(=O)[C@@H](CSCNC(C)=O)NC(=O)c1ccc2cncc(-c3ccc(Oc4ccccc4)nc3)c2n1 [SLL08] | > 50000 | 11,444 | 676 | no inhibitory activity | > 50000 |  | 
2 | CCCC[C@@H](NC(=O)c1ccnc(C#N)c1)C(=O)N[C@H](CC(=O)N[C@H](Cc1ccncc1)C(=O)O)Cc1c[nH]c2ccccc12 [MP9] |  |  |  |  |  |  | IC50 (SARS-CoV-2 M^pro [3]): 139 ± 49 nM
3 | CNC(=O)C(Cc1ccncc1)NC(=O)CC(Cc1c[nH]c2ccccc12)NC(=O)C(CC1CCC1)NC(=O)c1ccnc(C#N)c1 (stereo not drawn) [SLL11] | 30 | 515,485 | 206,982 | no inhibitory activity | > 50000 | low nanomolar range | In vitro half time [4]: 9 min; Metabolic stability [4]: low metabolic stability; microsomal CLint (in vitro [5]): 139 µL/min/mg; microsomal CLint (in vitro [6]): 154 µL/min/mg; In vitro half time [7]: 10 min; Metabolic stability [7]: low metabolic stability; IC50 (SARS-CoV-2 M^pro [1]; off-DNA synthesized DECL hits): ≤ 30 nM
4 | N#Cc1cc(C(=O)N[C@H](CC2CCC2)C(=O)N[C@H](CC(=O)N[C@H](Cc2ccncc2)C(=O)O)Cc2c[nH]c3ccccc23)ccn1 [MP1] |  |  |  |  |  |  | Protective effect on infected Calu-3 (CPE) (SARS-CoV-2): no protective effect; EC50 (SARS-CoV-2; Severe acute respiratory syndrome coronavirus 2, Calu-3, 48 h, read-out: EC50 inhibition of CPE development): 2300 nM; Papp A→B (in vitro [8]): 5.4 ×10⁻⁶ cm/s; Papp B→A (in vitro [8]): 2.5 ×10⁻⁶ cm/s
5 | CCCCC(NC(=O)CC(Cc1c[nH]c2ccccc12)NC(=O)C(Cc1ccccc1)NC(=O)c1ccnc(C#N)c1)C(=O)NC (stereo not drawn) [SLL07] | 140 | 135,654 | 0 | no inhibitory activity | > 50000 | low nanomolar range | 
6 | CC(C)C[C@H](NC(=O)OCc1ccccc1)C(=O)N[C@@H](CC1CCNC1=O)C(O)S(=O)(=O)O (stereo partly drawn) [GC376] |  |  |  |  |  |  | IC50 (M^pro): 150 nM
7 | CCCC[C@@H](NC(=O)c1ccnc(C#N)c1)C(=O)N[C@H](CC(=O)N[C@H](Cc1ccncc1)C(=O)NC)Cc1c[nH]c2ccccc12 [SLL12] | 53 | 488,354 | 0 | no inhibitory activity | > 50000 | low nanomolar range | In vitro half time [4]: 8 min; Metabolic stability [4]: low metabolic stability; microsomal CLint (in vitro [5]): 131 µL/min/mg; microsomal CLint (in vitro [6]): 170 µL/min/mg; In vitro half time [7]: 11 min; Metabolic stability [7]: low metabolic stability
